35 compounds from patent US9914730B2, “Azaquinazoline inhibitors of Atypical protein Kinase C” (Ignyta, Inc., priority 2012, dated 2018) can be followed below.

SMILES strings stand for the structures. Where only a bound is given, the exact number is not on record here.

The target of the assay is T1, full-length human PKCι (Homo sapiens, UniProt P41743).
T1 construct: Recombinant, full-length human PKCι expressed in Sf21 insect cells is also commercially available; purchased; host or cells: Sf21 insect cells
T1 sequence (P41743 1-596): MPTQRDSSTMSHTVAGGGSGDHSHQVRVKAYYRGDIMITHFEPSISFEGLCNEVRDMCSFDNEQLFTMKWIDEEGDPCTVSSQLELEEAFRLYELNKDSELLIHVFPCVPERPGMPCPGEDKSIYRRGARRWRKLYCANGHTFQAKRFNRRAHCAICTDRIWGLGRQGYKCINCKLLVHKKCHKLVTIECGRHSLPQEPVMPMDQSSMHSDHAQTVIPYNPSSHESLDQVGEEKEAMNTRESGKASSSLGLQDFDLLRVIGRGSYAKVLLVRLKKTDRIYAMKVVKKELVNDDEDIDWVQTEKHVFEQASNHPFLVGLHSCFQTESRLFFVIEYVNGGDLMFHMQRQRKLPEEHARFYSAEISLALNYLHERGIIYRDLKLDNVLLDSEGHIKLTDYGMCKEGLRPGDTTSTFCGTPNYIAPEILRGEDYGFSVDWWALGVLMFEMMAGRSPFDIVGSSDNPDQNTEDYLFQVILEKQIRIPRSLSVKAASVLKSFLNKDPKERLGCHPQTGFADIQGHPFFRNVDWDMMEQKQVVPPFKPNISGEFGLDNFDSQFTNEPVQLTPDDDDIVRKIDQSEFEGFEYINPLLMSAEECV
The assay can be described thus: PKCι IC50 IMAP assay, full-length PKCι at 150 μM ATP. Format: biochemical. Particulars: read-out: IC50 in IMAP assay against full length PKCi at 150 μM ATP. The method, boiled down: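 Phosphorylation of a 5FAM-tagged PKCε pseudopeptide-derived substrate (100 nM) by full-length recombinant human PKCι was monitored by IMAP fluorescence polarisation. ATP was held at 150 μM, five times its apparent KM, with 60 min room-temperature incubation.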
With `CN(C[C@@H](N)Cc1ccccc1)c1nc(-c2ccncc2)nc2cnccc12` [Example 26, N-[(2S)-2-amino-3-phenylpropyl]-N-methyl-2-(pyridin-4-yl)pyrido[3,4-d]-pyrimidin-4-amine], the IC50 lay within 10 to 40 µM.

In the case of `O=C1CN(c2nc(-c3ccncc3)nc3cnccc23)CCN1` [Example 27, 4-[2-(pyridin-4-yl)pyrido[3,4-d]-pyrimidin-4-yl]-piperazin-2-one], the concentration for half-maximal inhibition (IC50) was in the range of 10 to 40 µM. Consider `NC[C@H](Cc1ccccc1)Nc1nc(-c2ccncc2)nc2cnccc12` [Example 28, N-[(2S)-1-amino-3-phenylpropan-2-yl]-2-(pyridin-4-yl)-pyrido[3,4-d]-pyrimidin-4-amine], for which the half-inhibitory concentration (IC50) fell in the range of 0.1 to 1 µM.

Take `c1ccc(C[C@@H]2CNCCN2c2nc(-c3ccncc3)nc3cnccc23)cc1` [Example 29, (2R)-2-benzyl-1-[2-(pyridin-4-yl)-pyrido[3,4-d]-pyrimidin-4-yl]-piperazine]: the IC50 fell in the range of 1 to 10 µM. As for `COc1cncc2nc(-c3ccncc3)nc(N3CCN[C@@H](Cc4ccccc4)C3)c12` [Example 30, (3S)-3-benzyl-1-[5-methoxy-2-(pyridin-4-yl)-pyrido[3,4-d]-pyrimidin-4-yl]-piperazine], the figure is 1 to 10 µM; as for `COc1cncc2nc(-c3ccncc3)nc(N3CCNCC3)c12` [Example 31, 1-[5-methoxy-2-(pyridin-4-yl)-pyrido[3,4-d]-pyrimidin-4-yl]-piperazine], 0.1 to 1 µM; as for `Clc1nccc2c(N3CCNCC3)nc(-c3ccncc3)nc12` [Example 32, 1-[8-chloro-2-(pyridin-4-yl)-pyrido[3,4-d]-pyrimidin-4-yl]-piperazine], 0.1 to 1 µM.

`c1cc(-c2nc(N3CCCNCC3)c3ccncc3n2)ccn1` [Example 33, 1-[2-(pyridin-4-yl)-pyrido[3,4-d]-pyrimidin-4-yl]-1,4-diazepane]: the 50% inhibitory concentration (IC50) lay within 1 to 10 µM. Take `OCCN1CCN(c2nc(-c3ccncc3)nc3cnccc23)CC1` [Example 34, 2-{4-[2-(pyridin-4-yl)pyrido[3,4-d]-pyrimidin-4-yl]-piperazin-1-yl}-ethan-1-ol]: the IC50 lay in the range of 10 to 40 µM.

In the case of `O[C@H]1CCN(c2nc(-c3ccncc3)nc3cnccc23)C1` [Example 35, (3S)-1-[2-(pyridin-4-yl)pyrido[3,4-d]-pyrimidin-4-yl]-pyrrolidin-3-ol], the IC50 fell in the range of 10 to 40 µM. For `O[C@@H]1CCN(c2nc(-c3ccncc3)nc3cnccc23)C1` [Example 36, (3R)-1-[2-(pyridin-4-yl)pyrido[3,4-d]-pyrimidin-4-yl]-pyrrolidin-3-ol], the IC50 fell in the range of 10 to 40 µM. Take `COc1cncc2nc(-c3ccncc3)nc(N3CCN[C@H](Cc4ccccc4)C3)c12` [Example 37, (3R)-3-benzyl-1-[5-methoxy-2-(pyridin-4-yl)pyrido[3,4-d]pyrimidin-4-yl]piperazine]: the half-maximal inhibitory concentration (IC50) was less than 0.1 µM. As for `c1ccc(C[C@H]2CNCCN2c2nc(-c3ccncc3)nc3cnccc23)cc1` [Example 38, (2S)-2-benzyl-1-[2-(pyridin-4-yl)-pyrido[3,4-d]-pyrimidin-4-yl]-piperazine], the figure is 0.1 to 1 µM; as for `COC(=O)[C@@H]1C[C@H](Nc2nc(-c3ccncc3)nc3cnccc23)CN1` [Example 39, methyl (2S,4S)-4-{[2-(pyridin-4-yl)pyrido[3,4-d]-pyrimidin-4-yl]-amino}pyrrolidine-2-carboxylate], 10 to 40 µM. With `COC(=O)[C@@H]1C[C@H](NC(=O)[C@@H]2C[C@H](Nc3nc(-c4ccncc4)nc4cnccc34)CN2)CN1` [Example 40, methyl (2S,4S)-4-[(2S,4S)-4-{[2-(pyridin-4-yl)-pyrido[3,4-d]-pyrimidin-4-yl]-amino}pyrrolidine-2-amido]pyrrolidine-2-carboxylate] the figure was 1 to 10 µM; with `CN[C@H](CNc1nc(-c2ccncc2)nc2cncc(OC)c12)Cc1ccccc1` [Example 41, [(2S)-1-{[5-methoxy-2-(pyridin-4-yl)-pyrido[3,4-d]-pyrimidin-4-yl]-amino}-3-phenylpropan-2-yl](methyl)amine], less than 0.1 µM.

Consider `c1cc(-c2nc(N[C@@H]3CCOC3)c3ccncc3n2)ccn1` [Example 42, N-[(3R)-oxolan-3-yl]-2-(pyridin-4-yl)-pyrido[3,4-d]-pyrimidin-4-amine], for which the IC50 was in the range of 10 to 40 µM. As for `COc1cncc2nc(-c3ccncc3)nc(N3CCNC(C(F)(F)F)C3)c12` (centres unmarked) [Example 43, 1-[5-methoxy-2-(pyridin-4-yl)pyrido[3,4-d]-pyrimidin-4-yl]-3-(trifluoromethyl)-piperazine], the figure is 1 to 10 µM; as for `COc1cncc2nc(-c3ccncc3)nc(N3CCN[C@@H](C)C3)c12` [Example 44, (3S)-1-[5-methoxy-2-(pyridin-4-yl)-pyrido[3,4-d]-pyrimidin-4-yl]-3-methylpiperazine], 0.1 to 1 µM; as for `COc1cncc2nc(-c3ccncc3)nc(N3CC[C@@H](N)C3)c12` [Example 45, (3R)-1-[5-methoxy-2-(pyridin-4-yl)-pyrido[3,4-d]-pyrimidin-4-yl]-pyrrolidin-3-amine], 1 to 10 µM. With `COc1cncc2nc(-c3ccncc3)nc(N3CCN[C@@H](CO)C3)c12` [Example 46, [(2R)-4-[5-methoxy-2-(pyridin-4-yl)-pyrido[3,4-d]-pyrimidin-4-yl]-piperazin-2-yl]-methanol] the figure was less than 0.1 µM; with `COc1cncc2nc(-c3ccncc3)nc(NC[C@@H](N)[C@H](F)c3ccccc3)c12` [Example 47, N-[(2R,3R)-2-amino-3-fluoro-3-phenylpropyl]-5-methoxy-2-(pyridin-4-yl)pyrido[3,4-d]-pyrimidin-4-amine], less than 0.1 µM. As for `COc1cncc2nc(-c3ccncc3)nc(N3CCN(CC(N)=O)[C@@H](Cc4ccccc4)C3)c12` [Example 48, 2-[(2S)-2-benzyl-4-[5-methoxy-2-(pyridin-4-yl)-pyrido[3,4-d]-pyrimidin-4-yl]-piperazin-1-yl]acetamide], the figure is 1 to 10 µM; as for `COc1cncc2nc(-c3ccncc3)nc(NC[C@H](Cc3ccccc3)N(C)C)c12` [Example 49, [(2S)-1-{[5-methoxy-2-(pyridin-4-yl)-pyrido[3,4-d]-pyrimidin-4-yl]-amino}-3-phenylpropan-2-yl]dimethylamine], 1 to 10 µM; as for `COc1cncc2nc(-c3ccncc3)nc(N3CC[C@H](O)C3)c12` [Example 50, (3S)-1-[5-methoxy-2-(pyridin-4-yl)-pyrido[3,4-d]-pyrimidin-4-yl]-pyrrolidin-3-ol], 10 to 40 µM.

Regarding `COc1cncc2nc(-c3ccncc3)nc(N3C[C@@H](C)N[C@@H](C)C3)c12` [Example 51, 1-[5-methoxy-2-(pyridin-4-yl)-pyrido[3,4-d]-pyrimidin-4-yl]-3,5-cis-dimethylpiperazine], the IC50 was 1 to 10 µM. With `COc1cncc2nc(-c3ccncc3)nc(N3CCN[C@H](C)C3)c12` [Example 52, (3R)-1-[5-methoxy-2-(pyridin-4-yl)-pyrido[3,4-d]-pyrimidin-4-yl]-3-methylpiperazine] the figure was 1 to 10 µM; with `COc1cncc2nc(-c3ccncc3)nc(N3CC[C@H](N)C3)c12` [Example 53, (3S)-1-[5-methoxy-2-(pyridin-4-yl)-pyrido[3,4-d]-pyrimidin-4-yl]-pyrrolidin-3-amine], 0.1 to 1 µM; with `COc1cncc2nc(-c3ccncc3)nc(N3CCNC(CF)C3)c12` (centres unmarked) [Example 54, 3-(fluoromethyl)-1-[5-methoxy-2-(pyridin-4-yl)-pyrido[3,4-d]-pyrimidin-4-yl]-piperazine], 1 to 10 µM. As for `CC(C)NC(=O)C1CCN(c2nc(-c3ccncc3)nc3cnccc23)CC1` [Example 55, N-(propan-2-yl)-1-[2-(pyridin-4-yl)-pyrido[3,4-d]-pyrimidin-4-yl]-piperidine-4-carboxamide], the figure is 1 to 10 µM; as for `NC(=O)N1CCN(c2nc(-c3ccncc3)nc3cnccc23)CC1` [Example 56, 4-[2-(pyridin-4-yl)-pyrido[3,4-d]-pyrimidin-4-yl]-piperazine-1-carboxamide], 10 to 40 µM. As for `O=C(NC1CCCCC1)N1CCN(c2nc(-c3ccncc3)nc3cnccc23)CC1` [Example 57, N-cyclohexyl-4-[2-(pyridin-4-yl)-pyrido[3,4-d]-pyrimidin-4-yl]-piperazine-1-carboxamide], the figure is 10 to 40 µM; as for `COc1cncc2nc(-c3ccncc3)nc(N3CCNC(CC#N)C3)c12` (centres unmarked) [Example 58, 2-{4-[5-methoxy-2-(pyridin-4-yl)-pyrido[3,4-d]-pyrimidin-4-yl]-piperazin-2-yl]-acetonitrile], 0.1 to 1 µM. Regarding `FC(F)(F)C1CN(c2nc(-c3ccncc3)nc3cnccc23)CCN1` (centres unmarked) [Example 59, 1-[2-(pyridin-4-yl)-pyrido[3,4-d]-pyrimidin-4-yl]-3-(trifluoromethyl)-piperazine], the half-inhibitory concentration (IC50) was 10 to 40 µM.

With `FC(F)(F)C1CN(c2nc(-c3ccncc3)nc3c(Cl)nccc23)CCN1` (centres unmarked) [Example 60, 1-[8-chloro-2-(pyridin-4-yl)-pyrido[3,4-d]-pyrimidin-4-yl]-3-(trifluoromethyl)-piperazine], the concentration for half-maximal inhibition (IC50) lay in the range of 1 to 10 µM.

In general, IC50 refers to the concentration that gives 50% inhibition.
